From article PMC8400480, “Synthesis, Antibacterial and Pharmacokinetic Evaluation of Novel Derivatives of Harmine N^9-Cinnamic Acid” (Molecules, 2021)
In brackets after ≈: the same amount, converted by molar mass.

Tests used:
[1] = system: Escherichia coli CICC 10389 (E. coli); test: MIC, microplate dilution method; type: cell-based; conditions: Gram-negative, Mueller-Hinton broth, 37 °C, 18–24 h, read-out: MIC E. coli
Text: (§1) According to microplate dilution method, all the prepared compounds were screened for their in vitro antibacterial activity. The investigation included three representative Gram-positive strains, including Staphylococcus aureus CICC 10384 (S. aureus), Staphylococcus albus CICC 20237 (S. albus) and methicillinresistant Staphylococcus aureus ATCC 43300 (MRSA), and two representative Gram-negative strains, including Escherichia coli CICC 10389 (E. coli) and Pseudomonas aeruginosa CVCC 3359 (PA). Harmine and cinnamic acid were used as reference drugs.
(§2) The antibacterial efficiency of all prepared compounds was determined using the microplate dilution method. All compounds were prepared into different concentrations of stock solution according to their solubility. The compounds were added to the 96 well plate and serially diluted in Mueller-Hinton broth. Three Gram-positive strains (S. aureus, S. albus and MRSA) and two Gram-negative strains (E. coli and PA) were cultivated and added to the 96 well plate. The initial concentration of bacteria should be higher than 10^5 CFU/mL. The samples were incubated at 37 °C for 18–24 h. The MIC was determined for compounds by observing change of clarity in the broth. The same procedure was repeated in triplicate.

[2] = system: Pseudomonas aeruginosa CVCC 3359 (PA); test: MIC, microplate dilution method; type: cell-based; conditions: Gram-negative, Mueller-Hinton broth, 37 °C, 18–24 h, read-out: MIC PA
Text: as §1, §2

[3] = system: Staphylococcus albus CICC 20237 (S. albus); test: MIC, microplate dilution method; type: cell-based; conditions: Gram-positive; Mueller-Hinton broth, 37 °C, 18–24 h; read-out: MIC S. albus
Text: as §1, §2

[4] = system: Staphylococcus aureus CICC 10384 (S. aureus); test: MIC, microplate dilution method; type: cell-based; conditions: Gram-positive, Mueller-Hinton broth, 37 °C, 18–24 h, read-out: MIC S. aureus
Text: as §1, §2

[5] = system: methicillinresistant Staphylococcus aureus ATCC 43300 (MRSA); test: MIC, microplate dilution method; type: cell-based; conditions: Gram-positive, Mueller-Hinton broth, 37 °C, 18–24 h, read-out: MIC MRSA
Text: as §1, §2

S. aureus (CICC 10384) = test: Bactericidal time-kill kinetics; type: cell-based, Staphylococcus aureus
Procedure: The bacteria S. aureus was prepared in Muellere Hinton broth at 37 °C for 6 h with shaking. The solution of 3c (1 × MIC and 6 × MIC), 5a (1 × MIC and 6 × MIC), harmine (1 × MIC and 6 × MIC) and saline (served as a control group) were separately added to the bacterial suspension so that the final bacterial concentration were 10^6~10^7 CFU/mL. At the predetermined time point (0, 0.5, 2, 4, 6, 12 and 24 h), […] of aliquots were serially diluted in normal saline, plated on sterile Muellere Hinton agar plates, and incubated at 37 °C for 24 h. After incubation, the viable colonies were counted and represented as log10 (CFU/mL). The same procedure was repeated in triplicate.
Figure 3 Time-kill kinetics of compound 3c (A) and 5a (B) at 1 × and 6 × MIC against S. aureus (CICC 10384).

Row | Structure (SMILES) | MIC [1] | MIC [2] | MIC [3] | MIC [4] | MIC [5] | melting point | time to 4-log10 reduction (S. aureus (CICC 10384); 1 × MIC) | time to completely kill the bacteria (S. aureus (CICC 10384); 6 × MIC)
1 | COc1ccc2c3ccnc(C)c3n(CCCCCOC(=O)/C=C/c3cc(OC)c(OC)c(OC)c3)c2c1 [Compound 5b, 5-(7-Methoxy-1-methyl-9H-pyridine [3,4-b]indole-9-yl) amyl (E)-3-(3,4,5-trimethoxyphenyl) acrylate] | 1140 µg/mL (≈ 2190 µM) | 1140 µg/mL (≈ 2190 µM) | 2280 µg/mL (≈ 4390 µM) | 1140 µg/mL (≈ 2190 µM) | 2280 µg/mL (≈ 4390 µM) | 103.7 to 104.7 °C |  | 
2 | COc1ccc2c3ccnc(C)c3n(CCCCCCOC(=O)/C(=C/c3cc(OC)c(OC)c(OC)c3)c3ccc(OC)c(OC)c3)c2c1 [Compound 6d, 6-(7-Methoxy-1-methyl-9H-pyridine [3,4-b]indole-9-yl) hexyl (E)-2-(3,4-dimethoxyphenyl)-3– (3,4,5-trimethoxyphenyl) acrylate] | 212 µg/mL (≈ 318 µM) | 212 µg/mL (≈ 318 µM) | 53.1 µg/mL (≈ 79.4 µM) | 53.1 µg/mL (≈ 79.4 µM) | 212 µg/mL (≈ 318 µM) | 113.1 to 115 °C |  | 
3 | COc1ccc2c3ccnc(C)c3n(CCCOC(=O)/C=C/c3cc(OC)c(OC)c(OC)c3)c2c1 [Compound 3b, 3-(7-Methoxy-1-methyl-9H-pyridine [3,4-b]indole-9-yl) propyl (E)-3-(3,4,5-trimethoxyphenyl) acrylate] | 638 µg/mL (≈ 1300 µM) | 319 µg/mL (≈ 650 µM) | 638 µg/mL (≈ 1300 µM) | 319 µg/mL (≈ 650 µM) | 638 µg/mL (≈ 1300 µM) | 102.6 to 104.2 °C |  | 
4 | COc1ccc2c3ccnc(C)c3n(CCCCOC(=O)/C=C/c3cc(OC)c(OC)c(OC)c3)c2c1 [Compound 4b, 4-(7-Methoxy-1-methyl-9H-pyridine [3,4-b]indole-9-yl) butyl (E)-3-(3,4,5-trimethoxyphenyl) acrylate] | 450 µg/mL (≈ 892 µM) | 450 µg/mL (≈ 892 µM) | 225 µg/mL (≈ 446 µM) | 112 µg/mL (≈ 223 µM) | 450 µg/mL (≈ 892 µM) | 95.7 to 96.3 °C |  | 
5 | COc1ccc2c3ccnc(C)c3n(CCCCCCOC(=O)/C=C/c3ccccc3[N+](=O)[O-])c2c1 [Compound 6c, 6-(7-Methoxy-1-methyl-9H-pyridine [3,4-b]indole-9-yl) hexyl(E)-3-(2-nitrophenyl) acrylate] | 750 µg/mL (≈ 1540 µM) | 750 µg/mL (≈ 1540 µM) | 750 µg/mL (≈ 1540 µM) | 375 µg/mL (≈ 769 µM) | 1500 µg/mL (≈ 3080 µM) | 117.3 to 119.9 °C |  | 
6 | COc1ccc2c3ccnc(C)c3n(CCCCOC(=O)/C(=C/c3cc(OC)c(OC)c(OC)c3)c3ccc(OC)c(OC)c3)c2c1 [Compound 4d, 4-(7-Methoxy-1-methyl-9H-pyridine [3,4-b]indole-9-yl) butyl (E)-2-(3,4-dimethoxyphenyl)-3-(3,4,5-trimethoxyphenyl) acrylate] | 212 µg/mL (≈ 332 µM) | 212 µg/mL (≈ 332 µM) | 53.1 µg/mL (≈ 82.9 µM) | 26.6 µg/mL (≈ 41.5 µM) | 106 µg/mL (≈ 166 µM) | 95.7 to 97.4 °C |  | 
7 | O=C(O)/C=C/c1ccccc1 [Cinnamic acid] | 1120 µg/mL (≈ 7590 µM) | 1120 µg/mL (≈ 7590 µM) | 1120 µg/mL (≈ 7590 µM) | 1120 µg/mL (≈ 7590 µM) | 1120 µg/mL (≈ 7590 µM) |  |  | 
8 | COc1ccc(/C=C/C(=O)OCCCCCCn2c3cc(OC)ccc3c3ccnc(C)c32)cc1 [Compound 6a, 6-(7-Methoxy-1-methyl-9H-pyridine [3,4-b]indole-9-yl) hexyl (E)-3-(4-methoxyphenyl) acrylate] | 662 µg/mL (≈ 1400 µM) | 331 µg/mL (≈ 701 µM) | 166 µg/mL (≈ 350 µM) | 82.8 µg/mL (≈ 175 µM) | 331 µg/mL (≈ 701 µM) | 88.7 to 90.4 °C |  | 
9 | COc1ccc2c3ccnc(C)c3n(CCCCCOC(=O)/C=C/c3ccccc3[N+](=O)[O-])c2c1 [Compound 5c, 5-(7-Methoxy-1-methyl-9H-pyridine [3,4-b]indole-9-yl) amyl (E)-3-(2-nitrophenyl) acrylate] | 220 µg/mL (≈ 465 µM) | 220 µg/mL (≈ 465 µM) | 110 µg/mL (≈ 232 µM) | 110 µg/mL (≈ 232 µM) | 220 µg/mL (≈ 465 µM) | 127.4 to 130 °C |  | 
10 | COc1ccc(/C=C/C(=O)OCCCn2c3cc(OC)ccc3c3ccnc(C)c32)cc1 [Compound 3a, 3-(7-Methoxy-1-methyl-9H-pyridine [3,4-b]indole-9-yl)propyl(E)-3-(4-methoxyphenyl) acrylate] | 650 µg/mL (≈ 1510 µM) | 325 µg/mL (≈ 755 µM) | 650 µg/mL (≈ 1510 µM) | 325 µg/mL (≈ 755 µM) | 1300 µg/mL (≈ 3020 µM) | 133.2 to 133.9 °C |  | 
11 | COc1ccc2c3ccnc(C)c3n(CCCCOC(=O)/C=C/c3ccccc3[N+](=O)[O-])c2c1 [Compound 4c, 4-(7-Methoxy-1-methyl-9H-pyridine [3,4-b]indole-9-yl) butyl (E)-3-(2-nitrophenyl) acrylate] | 775 µg/mL (≈ 1690 µM) | 388 µg/mL (≈ 843 µM) | 1550 µg/mL (≈ 3370 µM) | 1550 µg/mL (≈ 3370 µM) | 1550 µg/mL (≈ 3370 µM) | 130.9 to 132.2 °C |  | 
12 | COc1ccc2c3ccnc(C)c3n(CCCCCOC(=O)/C(=C/c3cc(OC)c(OC)c(OC)c3)c3ccc(OC)c(OC)c3)c2c1 [Compound 5d, 5-(7-Methoxy-1-methyl-9H-pyridine [3,4-b]indole-9-yl) pentyl (E)-2-(3,4-dimethoxyphenyl)-3-(3,4,5-trimethoxyphenyl) acrylate] | 762 µg/mL (≈ 1160 µM) | 381 µg/mL (≈ 582 µM) | 95.3 µg/mL (≈ 146 µM) | 23.8 µg/mL (≈ 36.4 µM) | 95.3 µg/mL (≈ 146 µM) | 117.4 to 119.9 °C |  | 
13 | COc1ccc2c3ccnc(C)c3n(CCCOC(=O)/C(=C/c3cc(OC)c(OC)c(OC)c3)c3ccc(OC)c(OC)c3)c2c1 [Compound 3d, 3-(7-Methoxy-1-methyl-9H-pyridine [3,4-b]indole-9-yl) propyl (E)-2-(3,4-dimethoxyphenyl)-3-(3,4,5-trimethoxyphenyl) acrylate] | 725 µg/mL (≈ 1160 µM) | 362 µg/mL (≈ 578 µM) | 725 µg/mL (≈ 1160 µM) | 181 µg/mL (≈ 289 µM) | 362 µg/mL (≈ 578 µM) | 173.6 to 175.2 °C |  | 
14 | COc1ccc(/C=C/C(=O)OCCCCn2c3cc(OC)ccc3c3ccnc(C)c32)cc1 [Compound 4a, 4-(7-Methoxy-1-methyl-9H-pyridine [3,4-b]indole-9-yl) butyl (E)-3-(4-methoxyphenyl) acrylate] | 152 µg/mL (≈ 343 µM) | 305 µg/mL (≈ 686 µM) | 305 µg/mL (≈ 686 µM) | 305 µg/mL (≈ 686 µM) | 610 µg/mL (≈ 1370 µM) | 118.7 to 120.2 °C |  | 
15 | COc1ccc(/C=C/C(=O)OCCCCCn2c3cc(OC)ccc3c3ccnc(C)c32)cc1 [Compound 5a, 5-(7-Methoxy-1-methyl-9H-pyridine [3,4-b]indole-9-yl) amyl (E)-3-(4-methoxyphenyl) acrylate] | 250 µg/mL (≈ 545 µM) | 125 µg/mL (≈ 273 µM) | 15.6 µg/mL (≈ 34.1 µM) | 15.6 µg/mL (≈ 34.1 µM) | 62.5 µg/mL (≈ 136 µM) | 91.1 to 92.3 °C | about 24 h | ≤ 12 h
16 | COc1ccc2c3ccnc(C)c3n(CCCCCCOC(=O)/C=C/c3cc(OC)c(OC)c(OC)c3)c2c1 [Compound 6b, 6-(7-Methoxy-1-methyl-9H-pyridine [3,4-b]indole-9-yl) hexyl (E)-3-(3,4,5-trimethoxyphenyl) acrylate] | 305 µg/mL (≈ 573 µM) | 305 µg/mL (≈ 573 µM) | 152 µg/mL (≈ 286 µM) | 152 µg/mL (≈ 286 µM) | 306 µg/mL (≈ 574 µM) | 73.7 to 73.9 °C |  | 
